This note sets out measurements from patent US20240182945A1, “PRODUCTS FOR REGULATION OF EUKARYOTIC AND MICROBIAL CELLS GROWTH” (priority 2021, published 2024).

Assay type in all cases: cell-based
For one experiment, the system named is P. aeruginosa. As to the kind of experiment: Growth of primary pathogen alone on antibiotic-supplemented Columbia agar. The note with it: Columbia agar with erythrocytes 5%, 24 h at 37 C. As for the experimental part:
Four sputum samples from patients with lung infections were used. Pure bacterial culture of each microorganisms was obtained by routine microbiological methods.
In this case this antibiotic at MIC of 16 ug/mL was used in the following studies. PP alone, or Microbial Modulators (MM) alone or the original sputum were plated on the wells of 24 well plate filled with nutrient Columbia agar supplemented with erythrocytes 5% and supplemented with antibiotics taken as MIC determined against PP, but not more than 16 μg/mL and incubated 24 h at 37 C.

A further experiment relates to S. anginosus. Put plainly: Growth of microbial modulator alone on antibiotic-supplemented Columbia agar. The note with it: Bacterial set #1; Meropenem (16 μg/mL); Columbia agar with erythrocytes 5%, 24 h at 37 C.
A further experiment has as its system B. sonorensis. Described as above. Conditions: Bacterial set #1; Meropenem (16 μg/mL); Columbia agar with erythrocytes 5%, 24 h at 37 C.
A further experiment has as its system E. coli. The experiment is described as above. Conditions: Columbia agar with erythrocytes 5%, 24 h at 37 C.
Experiment [1] has as its system MIX—PP +BM (P. aeruginosa with microbial modulators). Put plainly: Growth of mix PP + MM (original sputum) on antibiotic-supplemented Columbia agar. The note with it: Columbia agar with erythrocytes 5%, 24 h at 37 C.
The test system of another experiment is S. aureus. As to the kind of experiment: Growth of microbial modulator alone on antibiotic-supplemented Columbia agar. The note with it: Bacterial set #3; Ceftazidime (2 μg/mL); Columbia agar with erythrocytes 5%, 24 h at 37 C.
The test system of a further experiment is B. thailandensis. Conditions: Bacterial set #3; Ceftazidime (2 μg/mL); Columbia agar with erythrocytes 5%, 24 h at 37 C.
Experiment [2] deals with bacteria of sputum from patients with lung diseases. As to the kind of experiment: Sputum plated on 24-well plates with antibiotics at Cmax or C0-4 h, Algorithm #1 or #2. Also: key: '+'—presence of bacterial growth, antibiotic ineffective; '−'—absence of bacterial growth, antibiotic effective. As for the experimental part: Pathological material (sputum) from patients with lung diseases was plated into wells of 24-well plates filled with a nutrient medium supplemented with erythrocytes 5%, to which antibiotics were added taken at different concentrations.
Group #1—antibiotics were taken at concentrations close to a maximum (peak) concentration achievable at the site of infection Cmax
Algorithm #1. Lab technician, analyzed the appearance of bacterial growth by comparing the signs of bacterial growth in each well supplemented with antibiotic(s) at certain timepoint, with the signs of bacterial growth in the same well at previous time point(s).
Algorithm #2. Lab technician analyzed the appearance of bacterial growth by comparing the signs of bacterial growth in each well supplemented with antibiotic(s) with bacterial growth in antibiotic-free control

For experiment [3] the test system is unchanged. As to the kind of experiment: Standard antibiotic susceptibility study using the microbroth dilution method (Algorithm #3). Also: key: '+'—presence of bacterial growth, antibiotic ineffective; '−'—absence of bacterial growth, antibiotic effective. An excerpt: Algorithm #3—Standard antibiotic susceptibility study using the microbroth dilution method.
The subject of the next experiment is S. haemolyticus. As to the kind of experiment: Growth of microbial modulator alone on antibiotic-supplemented Columbia agar. The note with it: Bacterial set #4; Amikacin (1 μg/mL); Columbia agar with erythrocytes 5%, 24 h at 37 C.
Setting [4] is: Bacterial set #1, Meropenem (16 μg/mL).
Where [5] appears, read: Bacterial set #3, Ceftazidime (2 μg/mL).
The mark [6] stands for this setting: Algorithm #1, antibiotic at C0-4 h.
Setting [7] is: Algorithm #1, antibiotic at Cmax.
[8] abbreviates: Algorithm #2, antibiotic at C0-4 h.
Setting [9] is: Algorithm #2, antibiotic at Cmax.
The mark [10] stands for this setting: Bacterial set #4, Amikacin (1 μg/mL).

With `C[C@@H](O)[C@H]1C(=O)N2C(C(=O)O)=C(S[C@@H]3CN[C@H](C(=O)N(C)C)C3)[C@H](C)[C@H]12` [Meropenem], the “microbial growth, PA (PP alone)” value in the experiment on P. aeruginosa (setting [4]) is listed as “+”. Moreover, the “microbial growth, SA (BM alone)” value in the experiment on S. anginosus is “−”. Further, the “microbial growth, BS (BM alone)” value in the experiment with B. sonorensis is on record as “−”. The “microbial growth, EC (BM alone)” value with E. coli (setting [4]) was “+”. The “microbial growth, MIX (PP + MM)” value in experiment [1] (setting [4]) is “−”.

In the case of `CC(C)(O/N=C(\C(=O)N[C@@H]1C(=O)N2C(C(=O)[O-])=C(C[n+]3ccccc3)CS[C@H]12)c1csc(N)n1)C(=O)O` [Ceftazidime], the “microbial growth, PA (PP alone)” value in the experiment with P. aeruginosa (setting [5]) is on record as “+”. The “microbial growth, SA (BM alone)” value in the experiment with S. aureus was “+”. Besides, the “microbial growth, BT (BM alone)” value in the experiment with B. thailandensis was “+”. For the same molecule, in [1] (setting [5]), the “Presence of PP in Mix (PP + MM)” value is “−”. Moreover, the ATB efficacy result in experiment [2] (setting [6]), in experiment [2] (setting [7]), in experiment [2] (setting [8]), in experiment [2] (setting [9]) and in experiment [3] was “+” throughout.

Consider `NCC[C@H](O)C(=O)N[C@@H]1C[C@H](N)[C@@H](O[C@H]2O[C@H](CN)[C@@H](O)[C@H](O)[C@H]2O)[C@H](O)[C@H]1O[C@H]1O[C@H](CO)[C@@H](O)[C@H](N)[C@H]1O` [Amikacin], for which, in the experiment on P. aeruginosa (setting [10]), the “microbial growth, PA (PP alone)” value is recorded as “+”. In addition, the “microbial growth, EC (BM alone)” value with E. coli (setting [10]) was “−”. In the experiment on S. haemolyticus, the “microbial growth, SH (BM alone)” value is reported as “+”. Also, the “Presence of PP in Mix (PP + MM)” value in experiment [1] (setting [10]) is “−”. Also, the ATB efficacy entry in [2] (setting [6]), in [2] (setting [7]), in experiment [2] (setting [8]), in experiment [2] (setting [9]) and in experiment [3] was “−” each time.
